Assay results from patent publication US11590142B2, “Oxazolidinone antibiotic compounds and process of preparation” (Bugworks Research, Inc., priority 2018, dated 2023).
Converted amounts (≈) assume the structure as drawn.

How the values were obtained:
Type in all cases: cell-based
[1] = test system: P. aurigenosa clinical strains; experiment: Antibacterial susceptibility studies (MIC50 and MIC90), clinical strains, CLSI guidelines; details: for MIC50: read-out: MIC50; for MIC90: read-out: MIC90
[2] = test system: Pseudomonas aeruginosa ATCC 27853; experiment: Minimum Inhibitory Concentration (MIC) in LB media; details: ATCC27853, read-out: Minimum Inhibitory Concentration P. aurigenosa ATCC 27853
Description: (§1) Biological Activity (Antibacterial activity): The compounds of Formula (I) are of interest due to their potent antibacterial effects. […] The medium sterility is checked by incubating at 37° C. for a period of 48 h. Bacterial cultures that are stored as glycerol stocks at -80° C. are sub cultured on LB agar plates to obtain isolated colonies. A single colony of each strain is cultured in LB broth. The cultures are incubated at 37° C., 200 rpm till they reach an optical density (OD at 600 nm) of 0.8 to 1. […] Test compounds are dissolved in dimethyl sulfoxide (DMSO) to a stock concentration of 4 mg/mi. A twofold dilution series of this DMSO stock is prepared in a 96 well V bottom microtitre plate from rows A to H. A 3 μL volume of these dilutions are transferred to a 96-well flat bottom microtitre assay plate. Controls to monitor the effects of DMSO and media sterility are included. Each well is inoculated with 150 μL of the above diluted culture. The plates are incubated at 37° C. overnight in a humidified incubator. The following morning, the plates are read using a Spectrophotometer at 600 nm wavelength.

[3] = test system: Enterococcus faecalis ATCC 29212; experiment: Minimum Inhibitory Concentration (MIC) in LB media; details: ATCC29212, read-out: Minimum Inhibitory Concentration E. faecalis ATCC 29212
Description: as §1

[4] = test system: Staphylococcus aureus ATCC 29213; experiment: Minimum Inhibitory Concentration (MIC) in LB media; details: ATCC29213, read-out: Minimum Inhibitory Concentration S. aureus ATCC 29213
Description: as §1

[5] = test system: Escherichia coli ATCC 25922; experiment: Minimum Inhibitory Concentration (MIC) in LB media; details: ATCC25922, read-out: Minimum Inhibitory Concentration E. coli ATCC 25922
Description: as §1

[6] = test system: Acinetobacter baumannii ATCC 19606; experiment: Minimum Inhibitory Concentration (MIC) in LB media; details: ATCC19606
Description: as §1

[7] = test system: Klebsiella pneumoniae ATCC 13883; experiment: Minimum Inhibitory Concentration (MIC) in LB media; details: ATCC13883, read-out: Minimum Inhibitory Concentration K. pneumoniae ATCC 13883
Description: as §1

[8] = test system: E. coli ATCC25922; experiment: Antibacterial susceptibility study, reference strain, CLSI guidelines
[9] = test system: E. coli clinical strains; experiment: Antibacterial susceptibility studies (MIC50 and MIC90), clinical strains, CLSI guidelines; details: for MIC50 / MIC90: Escherichia coli; for MIC50: read-out: MIC50; for MIC90: read-out: MIC90
[10] = biological target: human ether a go-go related gene (hERG) K+ channel (Homo sapiens (Human), UniProt Q12809); experiment: hERG inhibition assay, QPatch HTX automated electrophysiology; details: CHO cell line stably expressing hERG, whole-cell patch clamp, maximum test concentration 300 μM
human ether a go-go related gene (hERG) K+ channel, sequence (Q12809 whole entry): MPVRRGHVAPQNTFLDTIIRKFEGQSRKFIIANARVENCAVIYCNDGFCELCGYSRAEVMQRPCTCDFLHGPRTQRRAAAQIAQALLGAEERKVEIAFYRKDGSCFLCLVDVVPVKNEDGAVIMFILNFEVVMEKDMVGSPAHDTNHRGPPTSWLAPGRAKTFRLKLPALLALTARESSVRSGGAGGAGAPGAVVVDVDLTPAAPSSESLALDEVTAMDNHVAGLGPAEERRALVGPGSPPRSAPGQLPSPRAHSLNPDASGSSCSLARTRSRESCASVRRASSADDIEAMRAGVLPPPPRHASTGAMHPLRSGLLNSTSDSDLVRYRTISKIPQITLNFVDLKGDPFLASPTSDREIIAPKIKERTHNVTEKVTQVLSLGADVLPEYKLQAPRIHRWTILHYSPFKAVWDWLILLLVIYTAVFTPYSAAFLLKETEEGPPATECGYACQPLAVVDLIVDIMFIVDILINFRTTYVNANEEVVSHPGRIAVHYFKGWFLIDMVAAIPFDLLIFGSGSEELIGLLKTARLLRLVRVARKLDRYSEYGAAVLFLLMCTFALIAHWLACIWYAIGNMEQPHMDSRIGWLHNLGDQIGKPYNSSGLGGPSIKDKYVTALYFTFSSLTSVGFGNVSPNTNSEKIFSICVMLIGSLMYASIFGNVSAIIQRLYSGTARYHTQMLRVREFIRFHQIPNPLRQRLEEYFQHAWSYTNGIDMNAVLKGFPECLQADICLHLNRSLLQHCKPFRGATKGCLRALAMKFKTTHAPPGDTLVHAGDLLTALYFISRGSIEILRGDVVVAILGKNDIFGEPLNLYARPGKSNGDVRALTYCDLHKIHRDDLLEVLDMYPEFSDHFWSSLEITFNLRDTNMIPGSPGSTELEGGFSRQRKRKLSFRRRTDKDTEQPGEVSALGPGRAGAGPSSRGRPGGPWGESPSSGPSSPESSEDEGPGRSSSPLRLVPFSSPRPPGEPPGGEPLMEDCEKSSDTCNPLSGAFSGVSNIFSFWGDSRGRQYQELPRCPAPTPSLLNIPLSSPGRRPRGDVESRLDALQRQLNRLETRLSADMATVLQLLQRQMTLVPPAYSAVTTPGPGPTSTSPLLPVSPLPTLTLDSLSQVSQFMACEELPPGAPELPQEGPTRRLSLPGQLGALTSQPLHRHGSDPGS
Description: The compounds were tested for inhibition of the human ether a go-go related gene (hERG) K+ channel using QPatch HTX automated electrophysiology. […] Compounds were solubilised to 100 mM in DMSO before dilution in HBPS to 300 μM. […] Electrophysiological recordings were made from a Chinese Hamster Ovary cell line stably expressing the full-length hERG potassium channel. Single cell ionic currents were measured in whole-cell patch clamp configuration at room temperature (21-23° C.) using the QPatch HTX platform (Sophion). Intracellular solution contained (mM): 120 KF, 20 KCl, 10 EGTA, 10 HEPES and was buffered to pH 7.3. […] Cells were clamped at a holding potential of −80 mV. Cells were stepped to +20 mV for 2 s then −40 mV for 3s before returning to the holding potential. This sweep was repeated 10 times at 10 s intervals. hERG currents were measured from the tail step and referenced to the holding current. Compounds were then incubated for 2 minutes prior to a second measurement of ion channel current using an identical pulse train.

[11] = test system: K. pneumoniae clinical strains; experiment: Antibacterial susceptibility studies (MIC50 and MIC90), clinical strains, CLSI guidelines; details: for MIC50 / MIC90: Klebsiella pneumoniae; for MIC50: read-out: MIC50; for MIC90: read-out: MIC90
[12] = test system: A. baumannii ATCC19606; experiment: Antibacterial susceptibility study, reference strain, CLSI guidelines
[13] = test system: A. baumannii clinical strains; experiment: Antibacterial susceptibility studies (MIC50 and MIC90), clinical strains, CLSI guidelines; details: for MIC50 / MIC90: Acinetobacter baumannii; for MIC50: read-out: MIC50; for MIC90: read-out: MIC90; for Minimum (MIC): in µg/mL
[14] = test system: K. pneumoniae ATCC13883; experiment: Antibacterial susceptibility study, reference strain, CLSI guidelines
[15] = test system: E. cloacae clinical strains; experiment: Antibacterial susceptibility studies (MIC50 and MIC90), clinical strains, CLSI guidelines; details: for MIC50 / MIC90: Enterobacter cloacae; for MIC50: read-out: MIC50; for MIC90: read-out: MIC90
[16] = test system: P. aurigenosa ATCC27853; experiment: Antibacterial susceptibility study, reference strain, CLSI guidelines

Minimum (MIC) [1] | MIC50 [1] | MIC90 [1] | MIC [2] | MIC [3] | MIC [4] | MIC [5] | MIC [6] | MIC [7] | ATCC25922 (MIC) [8] | Minimum (MIC) [9] | MIC50 [9] | MIC90 [9] | Minimum (MIC) [11] | MIC50 [11] | MIC90 [11] | ATCC19606 (MIC) [12] | MIC50 [13] | MIC90 [13] | Structure (SMILES) | IC50 [10] | other results
0.06 µg/mL | 0.5 µg/mL (≈ 1.07 µM) | 2 µg/mL (≈ 4.27 µM) | 1 µg/mL (≈ 2.13 µM) | 0.25 µg/mL (≈ 0.534 µM) | 0.06 µg/mL (≈ 0.128 µM) | 0.06 µg/mL (≈ 0.128 µM) | 0.25 µg/mL (≈ 0.534 µM) | 0.13 µg/mL (≈ 0.278 µM) | 0.06 µg/mL | 0.03 µg/mL | 0.25 µg/mL (≈ 0.534 µM) | 0.5 µg/mL (≈ 1.07 µM) | 0.125 µg/mL | 1 µg/mL (≈ 2.13 µM) | 4 µg/mL (≈ 8.54 µM) | 0.25 µg/mL | 0.5 µg/mL (≈ 1.07 µM) | 0.5 µg/mL (≈ 1.07 µM) | Cn1c(=O)cnc2ccc(OCCNC[C@H]3CN(c4cnc5c(n4)NC(=O)CO5)C(=O)O3)nc21 [Compound 7, (S)-6-(5-(((2-((4-methyl-3-oxo-3,4-dihydropyrido[2,3-b]pyrazin-6-yl)oxy)ethyl)amino)methyl)-2-oxooxazolidin-3-yl)-2H-pyrazino[3,2-b][1,4]oxazin-3(4H)-one] | > 300 µM | Minimum (MIC) [13]: 0.06; ATCC13883 (MIC) [14]: 0.13 µg/mL; Minimum (MIC) [15]: 0.06 µg/mL; MIC50 [15]: 0.5 µg/mL (≈ 1.07 µM); MIC90 [15]: 2 µg/mL (≈ 4.27 µM); ATCC27853 (MIC) [16]: 1 µg/mL
0.06 µg/mL | 0.5 µg/mL (≈ 1.03 µM) | 1 µg/mL (≈ 2.06 µM) | 0.5 µg/mL (≈ 1.03 µM) | 0.03 µg/mL (≈ 0.0619 µM) | ≤ 0.03 µg/mL | 0.03 µg/mL (≈ 0.0619 µM) | 0.03 µg/mL (≈ 0.0619 µM) | 0.03 µg/mL (≈ 0.0619 µM) | 0.03 µg/mL | 0.03 µg/mL | 0.06 µg/mL (≈ 0.124 µM) | 0.25 µg/mL (≈ 0.516 µM) | 0.03 µg/mL | 0.25 µg/mL (≈ 0.516 µM) | 0.5 µg/mL (≈ 1.03 µM) | 0.03 µg/mL | 0.25 µg/mL (≈ 0.516 µM) | 0.5 µg/mL (≈ 1.03 µM) | Cn1c(=O)ccc2ncc(OCCNC[C@H]3CN(c4cnc5c(n4)NC(=O)CS5)C(=O)O3)nc21 [Compound 14, (S)-5-(((2-((5-Methyl-6-oxo-5,6-dihydropyrido[2,3-b]pyrazin-3-yl)oxy)ethyl)amino)methyl)-3-(3-oxo-3,4-dihydro-2H-pyrazino[2,3-b][1,4]thiazin-6-yl)oxazolidin-2-one] | > 150 µM | Minimum (MIC) [13]: 0.03; ATCC13883 (MIC) [14]: 0.03 µg/mL; Minimum (MIC) [15]: 0.03 µg/mL; MIC50 [15]: 0.25 µg/mL (≈ 0.516 µM); MIC90 [15]: 0.5 µg/mL (≈ 1.03 µM); ATCC27853 (MIC) [16]: 0.5 µg/mL
